Experimental data reported in ChEMBL document CHEMBL3351890, “Azapropellanes with anti-influenza a virus activity” (ACS Med Chem Lett, 2014).
Activity calls are given as the source filed them. The rule behind the calls is not given here.

Columns and labels:
[1] = test system: Matrix protein 2 (Influenza A virus), P06821 [V27A]; assay: Inhibition of influenza A virus wild type M2 proton channel V27A mutant expressed in Xenopus oocytes at 100 uM by two-electrode voltage clamp analysis; format: cell-based
[2] = test system: Matrix protein 2 (Influenza A virus), P06821 [withheld]; assay: Inhibition of influenza A virus wild type M2 proton channel S31N mutant expressed in Xenopus oocytes at 100 uM by two-electrode voltage clamp analysis; format: cell-based

Row | Structure (SMILES) | inhibition [1] | inhibition [2]
1 | C=C1CC23CC=CCC2(CNC3)C1 (centres undefined) | inactive | inactive
2 | C1CC23CCCC2(C1)CNC3 (centres undefined) | inactive | inactive
3 | CC1CC23CC(C)CC2(C1)CN(C(=N)N)C3 (centres undefined) | inactive | inactive
4 | C=C1CC23CNCC2(C1)CC(=C)C3 (centres undefined) | inactive | inactive
5 | C1=CC[C@]23CCCC[C@@]2(C1)CNC3 | inactive | inactive
6 | C=C1CC23CCCC2(CNC3)C1 (centres undefined) | inactive | inactive
7 | CC1CC23CNCC2(C1)CC(C)C3 (centres undefined) | inactive | inactive
